Data on four molecules can be found in ChEMBL document CHEMBL1201862, “PubChem BioAssay data set” (2004).

Test systems include LOX IMVI; CAKI-1; HCC 2998; SN12C; SK-MEL-5; UACC-62; SW-620; IGROV-1; MOLT-4; CCRF-CEM; HOP-62; NCI/ADR-RES; HCT-15; SF-268; NCI-H522; HCT-116; COLO 205; RPMI-8226; HL-60; UACC-257.
What all share (test): inhibition of tumour cell growth, NCI panel, 48 h

Structures are written as SMILES.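 Five concentrations, 48 hours, 96-well plates. The concentration for 50% growth inhibition is given as GI50.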 Active and inactive are the calls of the source. Cut-off read from the data, not from the text of the source: active = GI50 up to about 1.1 µM and inactive = higher. Bounds are passed on as bounds.

Regarding `COc1ccc(C2CC(c3sc(Nc4ccc(C)cc4)nc3C)=NN2)cc1` (stereo not given), the GI50 is 18.2 µM (inactive) in the experiment on LOX IMVI; 18 µM (inactive) in the experiment with CAKI-1; 15.8 µM (inactive) in the experiment on HCC 2998; 14.1 µM (inactive) with SN12C; 16 µM (inactive) with SK-MEL-5; 40 µM (inactive) in the experiment with UACC-62. The GI50 with SW-620 was 18.8 µM (inactive); in the experiment on IGROV-1, > 40.8 µM (inactive); in the experiment on MOLT-4 it was 8.34 µM (inactive); in the experiment with CCRF-CEM, 11.1 µM (inactive); in the experiment with HOP-62, 20.7 µM (inactive); in the experiment on NCI/ADR-RES, 17.4 µM (inactive). The GI50 in the experiment on HCT-15 was 15.1 µM; with SF-268 it was 15.8 µM (inactive); with NCI-H522, 15.3 µM (inactive); with HCT-116 it was 6.46 µM (inactive); in the experiment on COLO 205, 13.7 µM (inactive); with RPMI-8226 it was 12.4 µM (inactive). Moreover, the GI50 with HL-60 was 7.64 µM (inactive); with UACC-257, 15.8 µM (inactive).
Consider `C=C1CC(OC)(C(O)C(=O)N[C@H]2OCO[C@H]3C2O[C@H](C[C@@H](COC)OC)C(C)(C)C3OC)O[C@H](C)[C@@H]1C` (stereo not given in full), for which the GI50 with LOX IMVI, in the experiment on CAKI-1, with HCC 2998, in the experiment with SN12C, in the experiment with SK-MEL-5 and with UACC-62 was < 0.00482 µM (active) in each case. The GI50 in the experiment with SW-620, in the experiment on IGROV-1, with MOLT-4, in the experiment with CCRF-CEM, in the experiment on HOP-62 and in the experiment with NCI/ADR-RES was < 0.00482 µM (active) in each case. The GI50 in the experiment on HCT-15 was less than 0.00482 µM; with SF-268, < 0.00482 µM (active); in the experiment on NCI-H522 it was < 0.00482 µM (active); in the experiment on HCT-116, < 0.00482 µM (active); in the experiment on COLO 205 it was < 0.00482 µM (active); in the experiment with RPMI-8226 it was < 0.00482 µM (active). For the same molecule, the GI50 in the experiment on HL-60 and in the experiment on UACC-257 was < 0.00482 µM (active) each time.
As for `C=C1C(=O)C[C@@]23CCC[C@@]12CC(OCOC)C3` (stereo not given in full), the GI50 is 1.61 µM (inactive) with LOX IMVI; 2.3 µM (inactive) with CAKI-1; 6.35 µM (inactive) with HCC 2998; 1.93 µM (inactive) in the experiment with SN12C; 3.33 µM (inactive) in the experiment with SK-MEL-5; 2.61 µM (inactive) with UACC-62. For the same molecule, the GI50 in the experiment with SW-620 is 2.07 µM (inactive); in the experiment with IGROV-1, 1.85 µM (inactive); in the experiment with MOLT-4, 2.5 µM (inactive); in the experiment with CCRF-CEM, 1.62 µM (inactive); in the experiment with HOP-62 it was 12 µM (inactive); in the experiment on NCI/ADR-RES, 2.11 µM (inactive). In addition, the GI50 in the experiment with HCT-15 was 1.36 µM; with SF-268 it was 4.56 µM (inactive); with NCI-H522 it was 0.387 µM (active); in the experiment on HCT-116, 2.18 µM (inactive); in the experiment on COLO 205, 3.8 µM (inactive); with RPMI-8226 it was 2.55 µM (inactive). The GI50 with HL-60 was 2.05 µM (inactive); with UACC-257, 2.5 µM (inactive).
For `NC(=O)c1ncn2c1NC(=O)CC2`, the GI50 with LOX IMVI was > 100 µM (inactive); in the experiment on CAKI-1 it was > 100 µM (inactive); in the experiment on HCC 2998, > 100 µM (inactive); with SN12C it was > 100 µM (inactive); in the experiment with SK-MEL-5, > 100 µM (inactive); in the experiment with UACC-62, > 67.8 µM (inactive). For the same molecule, the GI50 with SW-620, in the experiment on IGROV-1, with MOLT-4, with CCRF-CEM, in the experiment on HOP-62 and in the experiment with NCI/ADR-RES was > 100 µM (inactive) each time. For the same molecule, the GI50 in the experiment with HCT-15 was more than 100 µM; in the experiment on SF-268, > 100 µM (inactive); in the experiment with NCI-H522 it was > 100 µM (inactive); in the experiment with HCT-116, > 100 µM (inactive); in the experiment with COLO 205 it was > 100 µM (inactive); in the experiment with RPMI-8226, > 100 µM (inactive). Moreover, the GI50 with HL-60 and with UACC-257 was > 100 µM (inactive) each time.
